Reference: PMC6736568, “Discovery of Novel Anti-cryptosporidial Activities From Natural Products by in vitro High-Throughput Phenotypic Screening” (Frontiers in Microbiology, 2019)
Like-named read-outs stand apart in the source and are kept apart here.

Assays:
[1] = system: Cryptosporidium parvum; assay: qRT-PCR assay of the growth of C. parvum in vitro in HCT-8 host cells (primary and secondary screening, EC50); assay type: cell-based
[2] = system: HCT-8 host cells (Hs18S)
[3] = primary screening at 10 uM, from Hs18S ΔCT
[4] = primary screening at 10 uM, treated vs control

Row | Compound | Inhibition (%) ([1]; primary screening at 10 uM) | Cytotoxicity (%) [2, 3] [%] | Hs18S ΔCT [2, 4] | other results
1 | COc1ccc(-c2coc3c4c(c(CC=C(C)C)c(O)c3c2=O)OC(C)(C)C=C4)cc1OC [POMIFERIN DIMETHYL ETHER] | -58.61 | 6.1 | 0.09 | 
2 | CC(=O)[C@@]1(O)CC[C@H]2[C@@H]3CCC4=CC(=O)CC[C@]4(C)[C@H]3CC[C@@]21C [HYDROXYPROGESTERONE] | -50.17 | 22.7 | 0.37 | 
3 | O.O=c1ccc2cc(O[C@@H]3OC(CO)[C@@H](O)[C@@H](O)C3O)c(O)cc2o1 (stereo partly shown) [ESCULIN MONOHYDRATE] | 10.62 | -34.0 | -0.42 | 
4 | POLYMYXIN B SULFATE | -11.86 | -15.1 | -0.20 | 
5 | C=C(C)[C@@H]1CC[C@]2(C)CC[C@]3(C)[C@H](CC[C@@H]4[C@@]5(C)CC[C@H](OC(C)=O)C(C)(C)[C@@H]5CC[C@]43C)[C@@H]12 [LUPEOL ACETATE] | 25.85 | -12.1 | -0.17 | 
6 | N[C@@H]1CONC1=O [CYCLOSERINE (D)] | -10.45 | -30.0 | -0.38 | 
7 | CC(=O)O[C@@H]1CC2C(C)(CC[C@H](O)C2(C)C)C2CC[C@]3(C)C(=CC(=O)O[C@H]3c3ccoc3)C21C (stereo partly drawn) [3beta-HYDROXYDEOXODIHYDRODEOXYGEDUNIN] | 77.26 | -19.7 | -0.26 | % Inhibition (3.3 uM) ([1]; secondary screening at 3.3 uM): -21%
8 | CC[C@H](C=C[C@@H](C)[C@H]1CC[C@H]2[C@@H]3CCC4=CC(=O)CC[C@]4(C)[C@H]3CC[C@]12C)C(C)C |  |  |  | % Inhibition (3.3 uM) [1]: -6; Inhibition (%) ([1]; 10 µM): 64.69; Hs18S ΔCT [2]: 0.46; Cytotoxicity (%) ([2]; 10 µM): 27.4
9 | CC(C)c1c(O)c(-c2cc3c(c(C(C)C)c2O)CCC2C(C)(C)CCC[C@]32C)cc2c1CCC1C(C)(C)CCC[C@]21C (stereo partly shown) [PODOTOTARIN] | -4.91 | 2.5 | 0.04 | 
10 | C[C@]12C=CC(=O)C=C1CC[C@@H]1[C@@H]2CC[C@]2(C)C(=O)CC[C@@H]12 [ANDROSTA-1,4-DIEN-3,17-DIONE] | 15.07 | 0.7 | 0.01 | 
11 | C[C@@H](N)[C@@H](O)c1ccccc1 [1R,2S-PHENYLPROPYLAMINE] | -7.00 |  |  | Hs18S ΔCT [2]: -0.16; Cytotoxicity (%) ([2]; 10 µM): -12.0
12 | CC(=O)Oc1cc2c(cc1OC(C)=O)[C@@H]1c3ccc(OC(C)=O)c(OC(C)=O)c3OC[C@]1(OC(C)=O)C2 [HAEMATOXYLIN PENTAACETATE] | -26.73 | 12.3 | 0.19 | 
13 | CC(=O)OCC(OC(C)=O)C(OC(C)=O)C(OC(C)=O)C(OC(C)=O)C(COC(C)=O)OC(C)=O (stereo not shown) [PERSEITOL HEPTAACETATE] | 0.17 | -10.1 | -0.14 | 
14 | COc1cc2c(cc1O)CCNC2C (stereo not shown) [SALSOLINE] | -1.38 | -0.9 | -0.01 | 
15 | CC1=CC2C(C(C)C)CCC(C)(O)C2CC1 (stereo not shown) [CADIN-4-EN-10-OL] | -28.21 | -34.1 | -0.42 | 
16 | CC1(C)CC2C1CC[C@]1(C)CCC3C(C(=O)O)CC(=O)O[C@@]32C1 (stereo partly shown) [3-HYDROXY-4-(SUCCIN-2-YL)-CARYOLANE delta-LACTONE] | 51.45 | 28.8 | 0.49 | 
17 | O=C(O[C@@H]1Cc2c(O)cc(O)cc2O[C@@H]1c1ccc(O)c(O)c1)c1cc(O)c(O)c(O)c1 [EPICATECHIN MONOGALLATE] | 6.24 | 23.1 | 0.38 | 
18 | COc1cc2c(cc1OC)-c1c(oc3cc(O)cc(O)c3c1=O)CO2 [APOTOXICAROL] | 1.64 | 10.7 | 0.16 | 
19 | O=C(/C=C/c1ccc(O)cc1)c1ccccc1O [2',4-DIHYDROXYCHALCONE] | -21.40 | 8.3 | 0.13 | 
20 | C[C@@H]1C[C@H](O)[C@@]2(O)[C@]13CC(=O)OC[C@@]2(C)[C@@](C)(O)C(=O)C3 [PSEUDO-ANISATIN] | -5.73 | 9.2 | 0.14 | 
21 | CNCC(=O)c1ccc(O)c(O)c1.Cl [ADRENOLONE HYDROCHLORIDE] | 26.43 | -16.6 | -0.22 | 
22 | CC(C(=O)O)[C@H]1CCC2C3CC=C4C[C@@H](O)CC[C@]4(C)C3CC[C@@]21C (stereo partly drawn) [3beta-HYDROXY-23,24-BISNORCHOL-5-ENIC ACID] | -20.26 | -63.2 | -0.71 | 
23 | Cc1c[nH]c2ccccc12 [SKATOLE] | 25.24 | 18.5 | 0.30 | 
24 | COc1ccc2c(c1OC)C(=O)O[C@@H]2[C@H]1c2cc3c(cc2CCN1C)OCO3 [HYDRASTINE (1R, 9S)] | -23.62 |  | -0.18 | 
25 | Cc1occc(=O)c1O [LARIXINIC ACID] | 59.78 | 12.9 | 0.20 | 

Row | Compound | Inhibition (%) ([1]; primary screening at 10 uM) | Cytotoxicity (%) [2, 3] [%] | Hs18S ΔCT [2, 4] | other results
26 | CC(=O)OC/C=C(\C)CC/C=C(\C)CC/C=C(\C)CC/C=C(\C)CC/C=C(\C)CC/C=C(\C)CC/C=C(\C)CC/C=C(\C)CCC=C(C)C [SOLANESYL ACETATE] | 15.24 |  |  | Hs18S ΔCT [2]: -0.20; Cytotoxicity (%) ([2]; 10 µM): -14.8
27 | BERBAMINE HYDROCHLORIDE | 6.86 | -15.6 | -0.21 | 
28 | O=c1cc(-c2ccc(O)cc2)oc2ccc(O)cc12 [6,4'-DIHYDROXYFLAVONE] | 28.18 | 17.9 | 0.28 | 
29 | O=C(O)C1=C[C@@H](O)[C@@H](O)[C@H](O)C1 [SHIKIMIC ACID] |  |  |  | inhibition at 10 µM ([1]; Cryptosporidium parvum, HCT-8, primary screening at 10 uM, read-out: Inhibition (%)): 10.3%; Hs18S ΔCT ([2]; human, 41 h, 10 μM): 0.06
30 | C[N+](C)(C)CCO.[Cl-] [CHOLINE CHLORIDE] | 20.98 |  |  | Hs18S ΔCT [2]: 0.33; Cytotoxicity (%) ([2]; 10 µM): 20.6
31 | C[C@H]1O[C@H](OC2[C@@H](O)[C@@H](O)C(O)[C@H](O)[C@H]2O)[C@@H](N)C[C@@H]1N=C(N)C(=O)O.Cl (stereo partly shown) [KASUGAMYCIN HYDROCHLORIDE] | 47.53 | -1.2 | -0.02 | 
32 | O=C(O)CC[N+](=O)[O-] [BOVINOCIDIN] | 41.04 | -25.1 | -0.32 | 
33 | BICUCULLINE(-) METHIODIDE | -0.49 | -4.9 | -0.07 | 
34 | CCCCCCCCCCCCCCCCC(C(=O)O)C(O)(CC(=O)O)C(=O)O (stereo not shown) [AGARIC ACID] | -4.50 | 18.9 | 0.30 | 
35 | N[C@@H](CSCSC[C@H](N)C(=O)O)C(=O)O [DJENKOLIC ACID] | 23.33 | 0.2 | 0.00 | 
36 | CC(C)=CCC/C(C)=C/CC/C(C)=C/CC/C(C)=C/CC/C(C)=C/CC/C(C)=C/CC/C(C)=C/CC/C(C)=C/CC/C(C)=C/CO [SOLANESOL] | -25.87 | 10.5 | 0.16 | 
37 | CC(=O)O[C@H]1CC[C@@]2(C)C(=CC=C3[C@@H]4CC[C@H]([C@H](C)/C=C/[C@H](C)C(C)C)[C@@]4(C)CC[C@@H]32)C1 [ERGOSTEROL ACETATE] | -10.68 | 3.7 | 0.06 | 
38 | IVERMECTIN | 78.97 | -3.4 | -0.05 | % Inhibition (3.3 uM) ([1]; secondary screening at 3.3 uM): 6%
39 | C[N+](C)(C)CC(O)CC(=O)O.[Cl-] (stereo not drawn) [CARNITINE (dl) HYDROCHLORIDE] | -3.41 | -73.4 | -0.79 | 
40 | C=CC[S+]([O-])C[C@H](N)C(=O)O (mixture of isomers) [L(+/-)-ALLIIN] | 21.98 | -12.5 | -0.17 | 
41 | CC1(C)C=Cc2c(c3c(c4c(=O)c(-c5ccc(O)cc5)coc24)OC(C)(C)CC3)O1 [ISOOSAJIN] | 96.83 | -18.5 | -0.24 | % Inhibition (3.3 uM) ([1]; secondary screening at 3.3 uM): 39%
42 | C[C@@H]1CC[C@H]2[C@](C)(CO)[C@@H](O)CC[C@]2(C)[C@@]12CC[C@@](CO)(CCO)O2 [LAGOCHILIN] | 9.20 | 34.1 | 0.60 | 
43 | TANNIC ACID | -22.61 | 17.0 | 0.27 | 
44 | COc1ccc(-c2coc3c4c(c(CC=C(C)C)c(O)c3c2=O)OC(C)(C)C=C4)cc1 [OSAJIN 4'-METHYL ETHER] | -21.87 | -2.7 | -0.04 | 
45 | CS(C)(=O)=O [DIMETHYLSULFONE] | 65.78 | 46.5 | 0.90 | % Inhibition (3.3 uM) ([1]; secondary screening at 3.3 uM): 61%
46 | COc1ccc(-c2oc3ccccc3c(=O)c2OC)cc1 [3,4'-DIMETHOXYFLAVONE] | -22.87 | 22.3 | 0.36 | 
47 | OC[C@H]1O[C@@H](O[C@H]2[C@H](O)[C@@H](O)[C@H](O)O[C@@H]2CO)[C@H](O)[C@@H](O)[C@@H]1O [CELLOBIOSE (D[+])] | -5.56 |  | 0.91 | 
48 | CC(=O)OC1CCC2(C)C(CC(OC(C)=O)C3(C)C4=CC(=O)OC(c5ccoc5)C4(C)CCC23)C1(C)C (stereo not drawn) [3alpha-ACETOXYDIHYDRODEOXYGEDUNIN] |  |  | -0.24 | % Inhibition (3.3 uM) ([1]; secondary screening at 3.3 uM): 25%
49 | COc1cc([C@@H]2c3cc4c(cc3[C@H](OC(C)=O)[C@H]3COC(=O)[C@@H]23)OCO4)cc(OC)c1OC [PICROPODOPHYLLIN ACETATE] | 20.82 | 50.6 | 1.02 | 
